Data reported in ChEMBL document CHEMBL3804811 (J Med Chem, 2016).
Converted amounts (≈) assume the structure as drawn.

Tested on: not listed separately
Assay: Intrinsic clearance in human liver microsomes at […] preincubated for 5 mins followed by NADPH addition measured after 5 to 30 mins by LC-MS/MS analysis
Format: ADME
Details: read-out: CLH

Row | Compound | CLint scaled [mL/min/kg]
1 | O=C(Nc1n[nH]c2ccc(Cc3cc(F)cc(F)c3)cc12)c1ccc(CN2CCCCC2)cc1NC1CCOCC1 | 40
2 | CN1CCN(c2ccc(C(=O)Nc3n[nH]c4ccc(Cc5cc(F)cc(F)c5)cc34)c(N[C@H]3CC[C@H](O)CC3)c2)CC1 | 25
3 | CN(C)CCN(C)C(=O)c1ccc(C(=O)Nc2n[nH]c3ccc(Cc4cc(F)cc(F)c4)cc23)c(NC2CCOCC2)c1 | 57

Tested on: not listed separately
Assay: Antiproliferative activity against human KARPAS299 cells incubated for 72 hrs by cell titer-glo assay
Details: KARPAS-299, 72 h

Row | Compound | IC50 [nM]
4 | O=C(Nc1n[nH]c2ccc(Cc3cc(F)cc(F)c3)cc12)c1ccc(CN2CCCCC2)cc1NC1CCOCC1 | 38
5 | CN1CCN(c2ccc(C(=O)Nc3n[nH]c4ccc(Cc5cc(F)cc(F)c5)cc34)c(N[C@H]3CC[C@H](O)CC3)c2)CC1 | 68
6 | CN(C)CCN(C)C(=O)c1ccc(C(=O)Nc2n[nH]c3ccc(Cc4cc(F)cc(F)c4)cc23)c(NC2CCOCC2)c1 | 50

Tested on: not listed separately
Assay: AUC (infinity) in Harlan nu/nu mouse at 10 mg/kg, po administered as single dose by LC-MS/MS analysis
Format: ADME, organism-based
Parameters: dose 10 mg/kg, route oral, time infinity
Details: in vivo

Row | Compound | AUC(0-inf) [µM·h]
7 | O=C(Nc1n[nH]c2ccc(Cc3cc(F)cc(F)c3)cc12)c1ccc(CN2CCCCC2)cc1NC1CCOCC1 | 1.51
8 | CN1CCN(c2ccc(C(=O)Nc3n[nH]c4ccc(Cc5cc(F)cc(F)c5)cc34)c(N[C@H]3CC[C@H](O)CC3)c2)CC1 | 1.25

Tested on: not listed separately
Assay: Solubility of compound at pH 7 buffer
Format: physicochemical
Details: not given

Row | Compound | solubility [µM]
9 | O=C(Nc1n[nH]c2ccc(Cc3cc(F)cc(F)c3)cc12)c1ccc(CN2CCCCC2)cc1NC1CCOCC1 | 84 (≈ 47 µg/mL)
10 | CN1CCN(c2ccc(C(=O)Nc3n[nH]c4ccc(Cc5cc(F)cc(F)c5)cc34)c(N[C@H]3CC[C@H](O)CC3)c2)CC1 | 7 (≈ 4.02 µg/mL)
11 | CN(C)CCN(C)C(=O)c1ccc(C(=O)Nc2n[nH]c3ccc(Cc4cc(F)cc(F)c4)cc23)c(NC2CCOCC2)c1 | 51 (≈ 30.1 µg/mL)

Tested on: not listed separately
Assay: Tmax in Harlan nu/nu mouse at 10 mg/kg, po administered as single dose by LC-MS/MS analysis
Format: ADME, organism-based
Details: in vivo

Row | Compound | Tmax [h]
12 | O=C(Nc1n[nH]c2ccc(Cc3cc(F)cc(F)c3)cc12)c1ccc(CN2CCCCC2)cc1NC1CCOCC1 | 0.83
13 | CN1CCN(c2ccc(C(=O)Nc3n[nH]c4ccc(Cc5cc(F)cc(F)c5)cc34)c(N[C@H]3CC[C@H](O)CC3)c2)CC1 | 1

Tested on: not listed separately
Assay: Apparent permeability from basolateral to apical side in human Caco2 cells at 2.5 mg/ml after 2 hrs by reversed-phase HPLC method
Format: ADME, cell-based
Details: Caco-2

Row | Compound | Papp B→A at 2 h, 2.5 mg/ml [×10⁻⁶ cm/s]
14 | O=C(Nc1n[nH]c2ccc(Cc3cc(F)cc(F)c3)cc12)c1ccc(CN2CCCCC2)cc1NC1CCOCC1 | 1.9
15 | CN1CCN(c2ccc(C(=O)Nc3n[nH]c4ccc(Cc5cc(F)cc(F)c5)cc34)c(N[C@H]3CC[C@H](O)CC3)c2)CC1 | 5.1
16 | CN(C)CCN(C)C(=O)c1ccc(C(=O)Nc2n[nH]c3ccc(Cc4cc(F)cc(F)c4)cc23)c(NC2CCOCC2)c1 | 19.8

Tested on: not listed separately
Assay: Half life in Harlan nu/nu mouse at 10 mg/kg, po administered as single dose by LC-MS/MS analysis
Format: ADME, organism-based
Details: in vivo

Row | Compound | half-life [h]
17 | O=C(Nc1n[nH]c2ccc(Cc3cc(F)cc(F)c3)cc12)c1ccc(CN2CCCCC2)cc1NC1CCOCC1 | 2.25

Tested on: not listed separately
Assay: Half life in Harlan nu/nu mouse at 10 mg/kg, iv administered as single dose by LC-MS/MS analysis
Format: ADME, organism-based
Details: in vivo

Row | Compound | half-life [h]
18 | O=C(Nc1n[nH]c2ccc(Cc3cc(F)cc(F)c3)cc12)c1ccc(CN2CCCCC2)cc1NC1CCOCC1 | 1.52
19 | CN1CCN(c2ccc(C(=O)Nc3n[nH]c4ccc(Cc5cc(F)cc(F)c5)cc34)c(N[C@H]3CC[C@H](O)CC3)c2)CC1 | 3.01
20 | CN(C)CCN(C)C(=O)c1ccc(C(=O)Nc2n[nH]c3ccc(Cc4cc(F)cc(F)c4)cc23)c(NC2CCOCC2)c1 | 2.83

Tested on: not listed separately
Assay: Apparent permeability from apical to basolateral side in human Caco2 cells at 2.5 mg/ml after 2 hrs by reversed-phase HPLC method
Format: ADME, cell-based
Details: Caco-2

Row | Compound | Papp A→B at 2 h, 2.5 mg/ml [×10⁻⁶ cm/s]
21 | O=C(Nc1n[nH]c2ccc(Cc3cc(F)cc(F)c3)cc12)c1ccc(CN2CCCCC2)cc1NC1CCOCC1 | 1.1
22 | CN1CCN(c2ccc(C(=O)Nc3n[nH]c4ccc(Cc5cc(F)cc(F)c5)cc34)c(N[C@H]3CC[C@H](O)CC3)c2)CC1 | 1.8
23 | CN(C)CCN(C)C(=O)c1ccc(C(=O)Nc2n[nH]c3ccc(Cc4cc(F)cc(F)c4)cc23)c(NC2CCOCC2)c1 | 2.7

Tested on: not listed separately
Assay: Oral bioavailability in Harlan nu/nu mouse at 10 mg/kg administered as single dose by LC-MS/MS analysis
Format: ADME, organism-based
Details: in vivo

Row | Compound | bioavailability [%]
24 | O=C(Nc1n[nH]c2ccc(Cc3cc(F)cc(F)c3)cc12)c1ccc(CN2CCCCC2)cc1NC1CCOCC1 | 18
25 | CN1CCN(c2ccc(C(=O)Nc3n[nH]c4ccc(Cc5cc(F)cc(F)c5)cc34)c(N[C@H]3CC[C@H](O)CC3)c2)CC1 | 7.3

Tested on: not listed separately
Assay: Intrinsic clearance in rat hepatocytes at […] after 10 to 90 mins by LC-MS/MS analysis
Format: ADME, cell-based, Hepatocyte
Details: read-out: CLH

Row | Compound | CLint scaled [mL/min/kg]
26 | O=C(Nc1n[nH]c2ccc(Cc3cc(F)cc(F)c3)cc12)c1ccc(CN2CCCCC2)cc1NC1CCOCC1 | 229
27 | CN1CCN(c2ccc(C(=O)Nc3n[nH]c4ccc(Cc5cc(F)cc(F)c5)cc34)c(N[C@H]3CC[C@H](O)CC3)c2)CC1 | 45
28 | CN(C)CCN(C)C(=O)c1ccc(C(=O)Nc2n[nH]c3ccc(Cc4cc(F)cc(F)c4)cc23)c(NC2CCOCC2)c1 | 42

Tested on: not listed separately
Assay: Clearance in Harlan nu/nu mouse at 10 mg/kg, iv administered as single dose by LC-MS/MS analysis
Format: ADME, organism-based
Details: in vivo

Row | Compound | clearance [mL/min/kg]
29 | O=C(Nc1n[nH]c2ccc(Cc3cc(F)cc(F)c3)cc12)c1ccc(CN2CCCCC2)cc1NC1CCOCC1 | 32.1
30 | CN1CCN(c2ccc(C(=O)Nc3n[nH]c4ccc(Cc5cc(F)cc(F)c5)cc34)c(N[C@H]3CC[C@H](O)CC3)c2)CC1 | 21.3
31 | CN(C)CCN(C)C(=O)c1ccc(C(=O)Nc2n[nH]c3ccc(Cc4cc(F)cc(F)c4)cc23)c(NC2CCOCC2)c1 | 38.8

Tested on: not listed separately
Assay: Cmax in Harlan nu/nu mouse at 10 mg/kg, po administered as single dose by LC-MS/MS analysis
Format: ADME, organism-based
Parameters: dose 10 mg/kg, route oral
Details: in vivo

Row | Compound | Cmax [µM]
32 | O=C(Nc1n[nH]c2ccc(Cc3cc(F)cc(F)c3)cc12)c1ccc(CN2CCCCC2)cc1NC1CCOCC1 | 0.36
33 | CN1CCN(c2ccc(C(=O)Nc3n[nH]c4ccc(Cc5cc(F)cc(F)c5)cc34)c(N[C@H]3CC[C@H](O)CC3)c2)CC1 | 0.36

Molecular target: ALK tyrosine kinase receptor (Homo sapiens, UniProt Q9UM73)
Details: not given

Chain of ALK tyrosine kinase receptor (Q9UM73 whole entry): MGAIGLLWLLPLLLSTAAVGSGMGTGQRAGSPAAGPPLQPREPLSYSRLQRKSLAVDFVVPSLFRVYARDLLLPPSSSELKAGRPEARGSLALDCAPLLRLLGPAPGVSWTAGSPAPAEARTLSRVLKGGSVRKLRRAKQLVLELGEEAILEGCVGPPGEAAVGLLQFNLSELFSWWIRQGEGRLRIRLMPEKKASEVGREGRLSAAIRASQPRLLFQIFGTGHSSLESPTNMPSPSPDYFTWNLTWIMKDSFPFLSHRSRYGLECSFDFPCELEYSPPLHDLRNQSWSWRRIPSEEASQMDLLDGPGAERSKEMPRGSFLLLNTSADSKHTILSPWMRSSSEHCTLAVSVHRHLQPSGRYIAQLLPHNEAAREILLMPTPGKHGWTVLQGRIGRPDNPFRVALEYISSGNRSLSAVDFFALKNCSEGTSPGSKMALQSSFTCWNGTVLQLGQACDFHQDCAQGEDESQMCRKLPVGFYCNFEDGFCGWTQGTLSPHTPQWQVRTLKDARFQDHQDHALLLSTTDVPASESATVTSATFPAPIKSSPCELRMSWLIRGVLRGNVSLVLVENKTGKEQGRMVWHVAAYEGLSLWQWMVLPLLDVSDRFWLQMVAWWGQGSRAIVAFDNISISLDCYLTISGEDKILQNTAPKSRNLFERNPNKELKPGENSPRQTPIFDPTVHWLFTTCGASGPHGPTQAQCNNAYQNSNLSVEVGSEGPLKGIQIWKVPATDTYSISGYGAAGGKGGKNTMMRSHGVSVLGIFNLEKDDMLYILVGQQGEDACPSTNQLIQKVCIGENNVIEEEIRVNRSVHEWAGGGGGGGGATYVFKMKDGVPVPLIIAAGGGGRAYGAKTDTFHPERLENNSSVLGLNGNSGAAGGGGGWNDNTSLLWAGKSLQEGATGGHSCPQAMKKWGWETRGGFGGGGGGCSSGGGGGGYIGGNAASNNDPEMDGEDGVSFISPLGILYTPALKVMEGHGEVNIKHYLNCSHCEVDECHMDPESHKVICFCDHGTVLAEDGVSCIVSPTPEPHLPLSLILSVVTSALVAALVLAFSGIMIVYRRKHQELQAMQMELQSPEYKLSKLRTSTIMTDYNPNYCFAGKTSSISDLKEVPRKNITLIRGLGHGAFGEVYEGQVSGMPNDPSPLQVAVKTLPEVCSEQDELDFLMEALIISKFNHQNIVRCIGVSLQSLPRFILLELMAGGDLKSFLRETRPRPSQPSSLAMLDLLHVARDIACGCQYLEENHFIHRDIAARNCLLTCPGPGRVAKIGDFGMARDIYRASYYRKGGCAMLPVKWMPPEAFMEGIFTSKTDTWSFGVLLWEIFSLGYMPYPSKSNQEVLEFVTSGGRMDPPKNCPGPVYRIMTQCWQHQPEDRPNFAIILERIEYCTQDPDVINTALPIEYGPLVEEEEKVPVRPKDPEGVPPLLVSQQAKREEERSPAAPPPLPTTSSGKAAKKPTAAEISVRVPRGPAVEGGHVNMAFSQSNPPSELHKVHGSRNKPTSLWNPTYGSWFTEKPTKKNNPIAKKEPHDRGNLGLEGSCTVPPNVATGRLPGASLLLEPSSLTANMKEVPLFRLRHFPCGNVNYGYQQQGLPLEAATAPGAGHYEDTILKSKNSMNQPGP

Row | Compound | IC50 [nM]
34 | O=C(Nc1n[nH]c2ccc(Cc3cc(F)cc(F)c3)cc12)c1ccc(CN2CCCCC2)cc1NC1CCOCC1 | 18
35 | CN1CCN(c2ccc(C(=O)Nc3n[nH]c4ccc(Cc5cc(F)cc(F)c5)cc34)c(N[C@H]3CC[C@H](O)CC3)c2)CC1 | 10
36 | CN(C)CCN(C)C(=O)c1ccc(C(=O)Nc2n[nH]c3ccc(Cc4cc(F)cc(F)c4)cc23)c(NC2CCOCC2)c1 | 15

Tested on: not listed separately
Assay: Cmax in Harlan nu/nu mouse at 10 mg/kg, iv administered as single dose by LC-MS/MS analysis
Format: ADME, organism-based
Parameters: dose 10 mg/kg, route intravenous
Details: in vivo

Row | Compound | Cmax [µM]
37 | O=C(Nc1n[nH]c2ccc(Cc3cc(F)cc(F)c3)cc12)c1ccc(CN2CCCCC2)cc1NC1CCOCC1 | 5.69
38 | CN1CCN(c2ccc(C(=O)Nc3n[nH]c4ccc(Cc5cc(F)cc(F)c5)cc34)c(N[C@H]3CC[C@H](O)CC3)c2)CC1 | 7.06
39 | CN(C)CCN(C)C(=O)c1ccc(C(=O)Nc2n[nH]c3ccc(Cc4cc(F)cc(F)c4)cc23)c(NC2CCOCC2)c1 | 10.3

Molecular target: Insulin receptor (Homo sapiens, UniProt P06213)
Assay: Inhibition of IR (unknown origin) in presence of gamma33-ATP
Details: not given

Chain of Insulin receptor (P06213 28-758 limits assumed): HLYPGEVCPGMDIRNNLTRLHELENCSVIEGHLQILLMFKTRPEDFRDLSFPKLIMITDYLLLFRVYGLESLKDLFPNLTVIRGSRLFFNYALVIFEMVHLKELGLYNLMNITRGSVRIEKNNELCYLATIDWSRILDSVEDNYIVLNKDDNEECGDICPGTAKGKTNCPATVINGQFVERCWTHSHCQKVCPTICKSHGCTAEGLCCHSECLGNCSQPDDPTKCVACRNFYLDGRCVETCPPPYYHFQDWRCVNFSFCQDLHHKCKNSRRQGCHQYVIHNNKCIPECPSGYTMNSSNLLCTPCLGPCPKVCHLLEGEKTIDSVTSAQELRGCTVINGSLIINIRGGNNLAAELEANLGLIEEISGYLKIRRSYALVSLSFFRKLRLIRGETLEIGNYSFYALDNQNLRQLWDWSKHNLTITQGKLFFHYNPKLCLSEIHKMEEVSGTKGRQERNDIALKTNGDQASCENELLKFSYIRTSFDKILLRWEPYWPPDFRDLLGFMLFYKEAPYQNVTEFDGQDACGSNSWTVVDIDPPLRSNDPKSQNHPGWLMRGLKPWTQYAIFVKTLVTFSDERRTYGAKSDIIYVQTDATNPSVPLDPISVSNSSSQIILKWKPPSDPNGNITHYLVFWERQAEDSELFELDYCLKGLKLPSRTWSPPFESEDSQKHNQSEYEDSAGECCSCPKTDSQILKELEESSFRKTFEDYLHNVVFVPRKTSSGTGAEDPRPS
Chain of Insulin receptor (P06213 763-1382 limits assumed): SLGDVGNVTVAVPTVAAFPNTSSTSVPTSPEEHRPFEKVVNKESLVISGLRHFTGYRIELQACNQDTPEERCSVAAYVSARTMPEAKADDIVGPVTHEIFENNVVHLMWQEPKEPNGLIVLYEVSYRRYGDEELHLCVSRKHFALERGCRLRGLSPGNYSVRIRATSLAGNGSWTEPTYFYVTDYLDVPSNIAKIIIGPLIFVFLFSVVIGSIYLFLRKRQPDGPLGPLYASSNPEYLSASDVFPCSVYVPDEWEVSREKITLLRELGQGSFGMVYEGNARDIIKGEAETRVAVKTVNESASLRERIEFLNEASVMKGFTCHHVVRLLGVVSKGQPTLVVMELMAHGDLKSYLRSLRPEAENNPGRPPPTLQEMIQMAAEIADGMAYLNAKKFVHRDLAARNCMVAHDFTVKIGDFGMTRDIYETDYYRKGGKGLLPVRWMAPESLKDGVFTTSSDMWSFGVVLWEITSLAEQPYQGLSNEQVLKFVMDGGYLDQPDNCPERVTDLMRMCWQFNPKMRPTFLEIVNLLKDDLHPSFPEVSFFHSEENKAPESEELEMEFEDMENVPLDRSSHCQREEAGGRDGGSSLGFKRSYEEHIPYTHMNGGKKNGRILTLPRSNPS

Row | Compound | IC50 [nM]
40 | O=C(Nc1n[nH]c2ccc(Cc3cc(F)cc(F)c3)cc12)c1ccc(CN2CCCCC2)cc1NC1CCOCC1 | 653
41 | CN1CCN(c2ccc(C(=O)Nc3n[nH]c4ccc(Cc5cc(F)cc(F)c5)cc34)c(N[C@H]3CC[C@H](O)CC3)c2)CC1 | 189
42 | CN(C)CCN(C)C(=O)c1ccc(C(=O)Nc2n[nH]c3ccc(Cc4cc(F)cc(F)c4)cc23)c(NC2CCOCC2)c1 | 457

Tested on: not listed separately
Assay: AUC (infinity) in Harlan nu/nu mouse at 10 mg/kg, iv administered as single dose by LC-MS/MS analysis
Format: ADME, organism-based
Parameters: dose 10 mg/kg, time infinity, route intravenous
Details: in vivo

Row | Compound | AUC(0-inf) [µM·h]
43 | O=C(Nc1n[nH]c2ccc(Cc3cc(F)cc(F)c3)cc12)c1ccc(CN2CCCCC2)cc1NC1CCOCC1 | 7.97
44 | CN1CCN(c2ccc(C(=O)Nc3n[nH]c4ccc(Cc5cc(F)cc(F)c5)cc34)c(N[C@H]3CC[C@H](O)CC3)c2)CC1 | 13.1
45 | CN(C)CCN(C)C(=O)c1ccc(C(=O)Nc2n[nH]c3ccc(Cc4cc(F)cc(F)c4)cc23)c(NC2CCOCC2)c1 | 7.86

Tested on: not listed separately
Assay: Volume of distribution at steady state in Harlan nu/nu mouse at 10 mg/kg, iv administered as single dose by LC-MS/MS analysis
Details: in vivo

Row | Compound | Vd [L/kg]
46 | O=C(Nc1n[nH]c2ccc(Cc3cc(F)cc(F)c3)cc12)c1ccc(CN2CCCCC2)cc1NC1CCOCC1 | 2.63
47 | CN1CCN(c2ccc(C(=O)Nc3n[nH]c4ccc(Cc5cc(F)cc(F)c5)cc34)c(N[C@H]3CC[C@H](O)CC3)c2)CC1 | 3.02
48 | CN(C)CCN(C)C(=O)c1ccc(C(=O)Nc2n[nH]c3ccc(Cc4cc(F)cc(F)c4)cc23)c(NC2CCOCC2)c1 | 4.41
